Laboratory results as given in PubChem BioAssay (NCI).
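48-hour exposure; five concentrations; linearly interpolated endpoints. TGI denotes the concentration required for complete inhibition of growth.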

Key:
Experiment in all cases: NCI-60 cell line screen, 48 h
XF 498 CNS = system: XF 498 CNS
KM20L2 colon = system: KM20L2 colon
LXFL 529 NSCLC = system: LXFL 529 NSCLC
RXF-631 renal = system: RXF-631 renal
HOP-18 NSCLC = system: HOP-18 NSCLC
DLD-1 colon = system: DLD-1 colon
DMS 273 small cell lung = system: DMS 273 small cell lung
DMS 114 small cell lung = system: DMS 114 small cell lung
SNB-78 CNS = system: SNB-78 CNS

| Compound | TGI (XF 498 CNS) | TGI (KM20L2 colon) | TGI (LXFL 529 NSCLC) | TGI (RXF-631 renal) | TGI (HOP-18 NSCLC) | TGI (DLD-1 colon) | TGI (DMS 273 small cell lung) | TGI (DMS 114 small cell lung) | TGI (SNB-78 CNS) |
| --- | --- | --- | --- | --- | --- | --- | --- | --- | --- |
| CO/S(=N/S(=O)(=O)c1ccccc1)c1ccccc1[N+](=O)[O-] (stereo unspecified) | > 100 µM | > 100 µM | > 100 µM | > 100 µM | > 100 µM | > 100 µM | > 100 µM |  |  |
| O=CC1=CCCN(CCc2c[nH]c3ccccc23)C1 |  | 122 µM | 45.8 µM | 102 µM | 109 µM | 111 µM | 94.4 µM | 146 µM |  |
| CSc1nc2nccnc2c(=O)[nH]1 | > 100 µM | > 100 µM | > 100 µM |  | > 100 µM | > 100 µM | > 100 µM | > 100 µM |  |
| CC1=C(C(=O)O)N2C(=O)[C@@H](NC(=O)C(c3ccccc3)N3CSC(=S)N(C(C)C)C3)C2SC1 (stereo partly specified) | > 100 µM | > 100 µM | > 100 µM |  | > 100 µM | > 100 µM | > 100 µM |  | > 100 µM |
| OC(c1cc2ccccc2[nH]1)C(O)(c1cc2ccccc2[nH]1)c1cc2ccccc2[nH]1 (stereo unspecified) |  | > 245 µM | 40.2 µM | 58.3 µM |  | 48 µM | 48.8 µM | 29 µM |  |
| O=C(NC1CCCCC1)NC12CC3CC(CC(F)(C3)C1)C2 | > 100 µM | > 100 µM | > 100 µM | > 100 µM |  | > 100 µM | > 100 µM | > 100 µM | > 100 µM |
| CC1=C(O)C(=O)C2C(=O)C1C(C)C2c1ccccc1 (stereo unspecified) | > 100 µM |  | > 100 µM |  |  | > 100 µM | > 100 µM |  | > 100 µM |
| CC(C)(Oc1ccc2c(=O)cc(-c3ccc(Cl)cc3)oc2c1)C(=O)Nc1c(Cl)cccc1Cl | > 100 µM | > 100 µM | > 100 µM |  | > 100 µM | > 100 µM | > 100 µM | > 100 µM | > 100 µM |
| COC(=O)CC(C(C(=O)OCc1ccccc1)C(C)O)N1C(=O)OCC1c1ccccc1 (stereo unspecified) | > 100 µM | > 100 µM | > 100 µM |  |  | > 100 µM | > 100 µM | > 100 µM |  |
| CCCCN(C)CC(C(C)=O)C(c1ccccc1)c1c(O)c2ccccc2oc1=O (stereo unspecified) | > 100 µM | > 100 µM | > 100 µM |  | > 100 µM | > 100 µM | > 100 µM | > 100 µM | > 100 µM |
| COC1CC(O[C@H]2CC[C@@]3(C)C(=CCC4(O)C3CCC35C(=O)OC6(C)O[C@@]43CCC65)C2)OC(C)C1O (stereo partly specified) | > 100 µM | > 100 µM | > 100 µM |  | > 100 µM | > 100 µM | > 100 µM | > 100 µM | > 100 µM |
| Cc1ccc([N+](=O)[O-])cc1NC(=O)C(=O)Cc1nc2ccc(C(=O)c3ccccc3)cc2[nH]c1=O | > 100 µM | > 100 µM | > 100 µM | > 100 µM | > 100 µM | > 100 µM | > 100 µM | > 100 µM |  |
| C/C(=N\N)C(CN1CCOCC1)C(c1ccccc1)c1c(O)c2ccccc2oc1=O (stereo unspecified) |  | > 100 µM | > 100 µM |  |  | > 100 µM | > 100 µM | > 100 µM | > 100 µM |
